From patent US8686050B2, “Diglycidic ether derivative therapeutics and methods for their use” (British Columbia Cancer Agency Branch, priority 2008, dated 2014)
Entries after “also recorded” stand apart in the source; their conditions may differ. Structures can show the parent of a compound that is named as a salt.

Columns and labels:
[1] = General toxicity in xenograft-bearing mice (behavior, body weight, organ histology)
Description: For routine histology, major organs and xenografts were harvested upon completion of the experiment and were fixed in 10% neutral buffered formalin and then embedded in paraffin. Fixed sections were cut and stained with H&E. To determine possible effects of compounds on the proliferation rates and apoptosis in xenografts, Ki-67 immunostaining and the TUNEL assay was performed. […] Levels of AR were determined by immunohistochemistry or Western blot analysis.
LNCaP human prostate cancer cells express endogenous androgen receptor (AR) and prostate-specific antigen (PSA), and progress to androgen independence in castrated hosts. LNCaP cells (10^6/ml) were implanted subcutaneously into NOD-SCID male mice that were at least 8 weeks in age. The cells were suspended in 75 μl of RPMI medium 1640 (5% FBS) with 75 μl of Matrigel and injected into the flank region of the host under anesthesia. […] A total of five doses were given to the animal. Tumor volume and body weight were measured every 5 days.
IHC data was prepared by a commercial lab that was blinded to treatments.
PC3 cells were implanted subcutaneously into NOD-SCID male mice. […] Animals were treated every 5 days with a subcutaneous dose of 20 mg/kg body weight of PNG01-185-017-9-2 or matching volume of vehicle (control, DMSO). Tumor volume and body weight were measured every 5 days.

[2] = system: LNCaP cells; test: Androgen-dependent proliferation of LNCaP cells (BrdU incorporation); format: cell-based, human; details: R1881 0.1 nM, 4 days; 185-9-2 5 μg/ml, bicalutamide 10 μM
Description: The prostate gland is an androgen-dependent organ where androgens are the predominant mitogenic stimulus (Isaacs J T, Scott W W, Coffey D S., Prog Clin Biol Res. 1979; 33:133-44). This dependency on androgens provides the underlying rationale for treating prostate cancer with chemical or surgical castration. […] BrdU incorporation was measured 4 days later to indicate changes in proliferation in response to androgen (FIG. 12). […] Cancer Inst. Monogr. 49, 17-21).

[3] = system: PC3 cells; test: Proliferation of PC3 cells (BrdU incorporation); format: cell-based, human; details: 185-9-2 5 μg/ml, 3 days
Source text: LNCaP cells were employed initially for all experiments because they are well-differentiated human prostate cancer cells in which ligand-independent activation of the AR by FSK has been characterized (Nazareth et al 1996 J. Biol. Chem. 271, 19900-19907; and Sadar 1999 J. Biol. Chem. 274, 7777-7783). LNCaP cells express endogenous AR and secrete prostate-specific antigen (PSA) (Horoszewicz et al 1983 Cancer Res. 43, 1809-1818). LNCaP cells can be grown either as monolayers in cell culture or as tumors in the well-characterized xenograft model that progresses to androgen independence in castrated hosts (Sato et al 1996 J. Steroid Biochem. Mol. Biol. 58, 139-146; Gleave et al 1991 Cancer Res. 51, 3753-3761; Sato et al 1997 Cancer Res. 57, 1584-1589; and Sadar et al 2002 Mol. Cancer. Ther. 1(8), 629-637). […] Small molecules that specifically target the AR-NTD should have no effect on PC3 cells. […] Reporter specificity may be determined using several alternative reporter gene constructs. […]
The prostate gland is an androgen-dependent organ where androgens are the predominant mitogenic stimulus (Isaacs J T, Scott W W, Coffey D S., Prog Clin Biol Res. 1979; 33:133-44). […] BrdU incorporation was measured 4 days later to indicate changes in proliferation in response to androgen (FIG. 12). […]

[4] = biological target: T1, Gal4 DBD-AR1-558 (AR NTD) (Homo sapiens, UniProt P10275); test: Transactivation of the AR NTD (Gal4 DBD-AR1-558 with 5xGal4UAS-luciferase) in LNCaP cells; format: cell-based; details: LNCaP cells, 185-9-2 5 ug/ml=12 μM, bicalutamide 10 μM
T1 construct: cloning amino acids 1-558 of the human AR NTD into the C-terminus of Gal4 DBD; expressed in transfected cells; host or cells: LNCaP
T1 sequence (P10275 1-558): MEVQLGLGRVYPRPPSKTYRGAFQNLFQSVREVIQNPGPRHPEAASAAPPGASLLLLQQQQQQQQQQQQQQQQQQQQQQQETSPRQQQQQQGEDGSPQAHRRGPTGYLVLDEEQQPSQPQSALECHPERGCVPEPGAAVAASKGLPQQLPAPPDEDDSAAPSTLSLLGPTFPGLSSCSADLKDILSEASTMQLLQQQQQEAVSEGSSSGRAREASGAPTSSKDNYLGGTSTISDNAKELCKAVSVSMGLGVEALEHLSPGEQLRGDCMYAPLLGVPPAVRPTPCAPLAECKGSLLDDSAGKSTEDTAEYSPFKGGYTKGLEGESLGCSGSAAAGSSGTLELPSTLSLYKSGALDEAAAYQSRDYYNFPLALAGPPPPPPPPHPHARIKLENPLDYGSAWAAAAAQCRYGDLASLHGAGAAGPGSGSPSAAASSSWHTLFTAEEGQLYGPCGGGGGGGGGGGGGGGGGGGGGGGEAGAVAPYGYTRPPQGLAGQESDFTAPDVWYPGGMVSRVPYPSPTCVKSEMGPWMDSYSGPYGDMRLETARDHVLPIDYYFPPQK
Source text: These fractions were next tested for their ability to inhibit the AR NTD. […] Extracts identified above were screened by such assays as well as some compounds purchased from commercial suppliers.
Expression vectors for these chimeric proteins were cotransfected into LNCaP cells with a reporter gene containing the Gal4-binding site as cis-acting elements (p5×Gal4UAS-TATA-luciferase).

Compound: CC(C)(c1ccc(OCC(O)CO)cc1)c1ccc(OCC(O)CCl)cc1 (centres unmarked) [185-9-2, BADGE.HCL.H2O]
- body weight, LNCaP xenograft mice, intravenous ([1]; I.V. 50 mg/kg every other day): did not reduce body weight
- body weight, LNCaP xenograft mice, intratumoral ([1]; day 0 versus day 25): did not reduce body weight
- pathology review of lung, heart, liver, spleen, and kidney ([1]; i.v. 50 mg/kg every other day, 5 injections, H&E): showed no signs of toxicity
- general toxicity indicated by animal behavior or body weight ([1]; mouse, in vivo, iv): not to cause general toxicity
- androgen-dependent proliferation of LNCaP cells (BrdU incorporation) [2]: blocked androgen-dependent proliferation; also recorded: as effective as bicalutamide
- proliferation of PC3 cells (BrdU incorporation) [3]: does NOT block proliferation; also recorded: not to block proliferation
- FSK-induced transactivation of the AR NTD ([4]; FSK 50 μM): to baseline levels; also recorded: blocked
- IL-6-induced transactivation of the AR NTD ([4]; IL-6 50 ng/ml): to baseline levels; also recorded: blocked
